These results are taken from ChEMBL document CHEMBL1201862, “PubChem BioAssay data set” (2004).

Among the test systems are HCT-15; 786-0; UACC-62; M14; HCT-116; OVCAR-3; LOX IMVI; HL-60; RPMI-8226; SF-268; SK-MEL-2; MOLT-4; SN12C; SF-539; EKVX; SR; HOP-92.
Common to all, as to experiment: NCI tumour cell line growth inhibition, 48 h

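Results reflect a 48-hour exposure of cells in 96-well plates to compound at five concentrations. GI50 is the concentration that inhibits growth by half.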 Activity calls are given as the source filed them. Rule as the data show it: active = GI50 up to about 1.1 µM and inactive = higher.

For `Cc1cc(N(CCC#N)CCC#N)ccc1/C=C(/NC(=O)/C=C/c1ccccc1)C(N)=O`, the GI50 in the assay on HCT-15 was over 100 µM; in the assay on 786-0 it was > 100 µM (inactive); in the assay with UACC-62, > 100 µM (inactive); with M14, > 100 µM (inactive); in the assay on HCT-116 it was > 100 µM (inactive); with OVCAR-3, > 100 µM (inactive). In addition, the GI50 in the assay with LOX IMVI was 97.5 µM (inactive); in the assay with HL-60 it was > 100 µM (inactive); with RPMI-8226, > 100 µM (inactive); in the assay with SF-268, > 100 µM (inactive); in the assay with SK-MEL-2, > 100 µM (inactive); in the assay on MOLT-4 it was > 100 µM (inactive). Also, the GI50 in the assay on SN12C, with SF-539 and in the assay on EKVX was > 100 µM (inactive) in each case.
With `Cn1c2c(c3ccccc31)C1CCCCC1C1C(=O)NC(=O)C21` (configuration not stated), the GI50 is 68.9 µM in the assay on HCT-15; 65 µM (inactive) in the assay on 786-0; > 100 µM (inactive) with UACC-62; 57.9 µM (inactive) with M14; 17 µM (inactive) in the assay with OVCAR-3; 33.1 µM (inactive) in the assay with LOX IMVI. Also, the GI50 in the assay on HL-60 was 26.6 µM (inactive); in the assay with RPMI-8226, 41.8 µM (inactive); in the assay with SF-268, 70.1 µM (inactive); with MOLT-4, 21.8 µM (inactive); in the assay with SN12C, 33.2 µM (inactive); in the assay on SR, 32.1 µM (inactive). For the same compound, the GI50 in the assay on SF-539 is 80.7 µM (inactive); with EKVX, 32.8 µM (inactive).
As to `COC(=O)/C(=C\c1ccc(N(CCC#N)CCC#N)cc1)NC(=O)c1cc([N+](=O)[O-])ccc1Cl`, the GI50 is over 100 µM with HCT-15; > 100 µM (inactive) in the assay with 786-0; > 100 µM (inactive) in the assay with UACC-62; > 100 µM (inactive) in the assay with M14; > 100 µM (inactive) with HCT-116; > 100 µM (inactive) in the assay on OVCAR-3. Further, the GI50 in the assay with LOX IMVI, with RPMI-8226, in the assay on SF-268, in the assay on SK-MEL-2, with MOLT-4 and in the assay with SN12C was > 100 µM (inactive) each time. Besides, the GI50 in the assay with SR is 30.5 µM (inactive); with SF-539 it was > 100 µM (inactive); in the assay on EKVX, > 100 µM (inactive).
Consider `C1CN2CCN3CCN4CCN1[PH]243`, for which the GI50 in the assay on HCT-15 is over 100 µM; in the assay with 786-0, > 100 µM (inactive); with UACC-62, > 100 µM (inactive); in the assay with M14 it was > 100 µM (inactive); with HCT-116, > 100 µM (inactive); with OVCAR-3, > 100 µM (inactive). Moreover, the GI50 in the assay with LOX IMVI, in the assay with HL-60, in the assay with RPMI-8226, in the assay with SK-MEL-2, in the assay with MOLT-4 and in the assay with SN12C was > 100 µM (inactive) in each case. Moreover, the GI50 with SR, with SF-539 and with EKVX was > 100 µM (inactive) throughout.
With `CCOc1ccc(NC(=O)C2=C(C)NC(C)=C(C(=O)Nc3ccc(OCC)cc3)C2c2ccc(O)c(OC)c2)cc1`, the GI50 with 786-0 is 48.9 µM (inactive); in the assay on M14 it was > 100 µM (inactive); in the assay with HOP-92, 20.4 µM (inactive); with OVCAR-3 it was > 100 µM (inactive); in the assay on LOX IMVI, > 100 µM (inactive); in the assay with HL-60, 42.7 µM (inactive). For the same compound, the GI50 in the assay on RPMI-8226 was 28.6 µM (inactive); in the assay on SF-268, > 100 µM (inactive); in the assay with SK-MEL-2, 64.6 µM (inactive); in the assay with MOLT-4, 28.1 µM (inactive); in the assay with SN12C, 86.3 µM (inactive); in the assay on SF-539, 28.8 µM (inactive). For the same compound, the GI50 in the assay with EKVX is > 100 µM (inactive).
As for `CC1C(O)=C(O)c2ccccc2N1O` (configuration not stated), the GI50 in the assay on HCT-15 was 96.6 µM; in the assay with 786-0 it was > 100 µM (inactive); with UACC-62, > 100 µM (inactive); with M14 it was > 100 µM (inactive); in the assay on HCT-116, 49.8 µM (inactive); with HOP-92 it was 31.9 µM (inactive). The GI50 in the assay with OVCAR-3 was > 100 µM (inactive); in the assay with LOX IMVI, 82.2 µM (inactive); in the assay on HL-60, 44.2 µM (inactive); in the assay with RPMI-8226, 80.4 µM (inactive); in the assay with SF-268, > 100 µM (inactive); in the assay with SK-MEL-2, > 100 µM (inactive). Further, the GI50 was 77.6 µM (inactive) in the assay with MOLT-4, > 100 µM (inactive) with SN12C, > 100 µM (inactive) in the assay on SF-539 and > 100 µM (inactive) in the assay with EKVX.
Regarding `O=C(/C=C/c1ccc(Cl)c(Cl)c1)c1ccc(F)cc1`, the GI50 in the assay with HCT-15 was 10.2 µM; in the assay on 786-0, 15.5 µM (inactive); in the assay with UACC-62, 14.7 µM (inactive); in the assay with M14 it was 16.9 µM (inactive); in the assay with HCT-116, 7.67 µM (inactive); in the assay on HOP-92 it was 32.2 µM (inactive). Also, the GI50 in the assay on OVCAR-3 was 18.6 µM (inactive); in the assay on HL-60, 11.9 µM (inactive); in the assay on RPMI-8226, 3.3 µM (inactive); with SF-268, 28.2 µM (inactive); in the assay with MOLT-4, 15.8 µM (inactive); in the assay with SN12C, 22.5 µM (inactive). In addition, the GI50 in the assay with SF-539 is 20.8 µM (inactive); in the assay with EKVX it was 27.4 µM (inactive).
Regarding `OCC(O)C(O)C(O)c1nn(-c2ccccc2)c2nc3cc(Cl)c(Cl)cc3nc12` (configuration not stated), the GI50 was 32 µM (inactive) in the assay with 786-0; 28.8 µM (inactive) with UACC-62; 17.7 µM (inactive) in the assay with M14; 54.5 µM (inactive) in the assay with HCT-116; 40.3 µM (inactive) in the assay with OVCAR-3; 36.5 µM (inactive) in the assay on LOX IMVI. The GI50 in the assay with HL-60 is 27 µM (inactive); in the assay on RPMI-8226 it was 25.4 µM (inactive); in the assay on SF-268, 55.1 µM (inactive); with SK-MEL-2, 33 µM (inactive); in the assay on MOLT-4, 24.5 µM (inactive); with SN12C, 41.9 µM (inactive). Besides, the values for the GI50 in the assay with SR, in the assay on SF-539 and in the assay on EKVX were 33.9 µM (inactive), 18.6 µM (inactive) and 51.6 µM (inactive), respectively.
For `Nc1c(C(=O)Nc2ccccc2)[n+]([O-])c2ccccc2[n+]1[O-]`, the GI50 is 13.1 µM with HCT-15; 13.6 µM (inactive) with 786-0; 10.5 µM (inactive) in the assay with UACC-62; 15.6 µM (inactive) in the assay on M14; 16.7 µM (inactive) in the assay with HOP-92; 17.3 µM (inactive) in the assay with OVCAR-3. Moreover, the GI50 with LOX IMVI is 12.3 µM (inactive); in the assay on HL-60, 17.9 µM (inactive); in the assay with RPMI-8226 it was 20.6 µM (inactive); in the assay on SF-268 it was 25.1 µM (inactive); in the assay on SK-MEL-2, 15.8 µM (inactive); in the assay with MOLT-4, 18.7 µM (inactive). Also, the GI50 with SN12C is 14.8 µM (inactive); with SF-539, 17.9 µM (inactive); in the assay with EKVX, 25.9 µM (inactive).
For the compound `CCOP(=O)(OCC)C1CCCCOC1=O` (configuration not stated), the GI50 was over 100 µM in the assay with HCT-15; > 100 µM (inactive) in the assay with 786-0; > 100 µM (inactive) in the assay with UACC-62; > 100 µM (inactive) with M14; > 100 µM (inactive) in the assay with HCT-116; > 100 µM (inactive) in the assay on OVCAR-3. For the same compound, the GI50 in the assay on LOX IMVI is 19.9 µM (inactive); with HL-60, > 100 µM (inactive); in the assay with RPMI-8226, > 100 µM (inactive); in the assay on SF-268 it was > 100 µM (inactive); with SK-MEL-2, > 100 µM (inactive); with MOLT-4, 33 µM (inactive). Further, the GI50 in the assay on SN12C was 95.9 µM (inactive); with SF-539, > 100 µM (inactive); in the assay on EKVX, > 100 µM (inactive).
Turning to `CCN(CC)CCCC(C)Nc1ccnc2ccc3nn(C)nc3c12` (configuration not stated), the GI50 with 786-0 was 37.3 µM (inactive); in the assay with UACC-62, > 100 µM (inactive); with M14, 23.7 µM (inactive); with HCT-116, 26.2 µM (inactive); with LOX IMVI, 17.9 µM (inactive); with HL-60, 30.1 µM (inactive). Further, the GI50 in the assay with RPMI-8226 is 53 µM (inactive); with SF-268 it was > 100 µM (inactive); with MOLT-4, 25.3 µM (inactive); in the assay with SN12C, 38.9 µM (inactive); in the assay with SR it was 32.8 µM (inactive); with SF-539 it was 37.8 µM (inactive). For the same compound, the GI50 in the assay with EKVX was > 100 µM (inactive).
As to `CC1=C(C(=O)CC(=O)C(=O)Nc2ccccc2)Sc2ccccc2N1`, the GI50 in the assay on HCT-15 was over 100 µM; in the assay on 786-0 it was > 100 µM (inactive); in the assay with UACC-62, > 100 µM (inactive); with M14 it was > 100 µM (inactive); in the assay on HCT-116, > 100 µM (inactive); in the assay with HOP-92, 2.84 µM (inactive). Besides, the GI50 in the assay with OVCAR-3, in the assay with LOX IMVI, in the assay with HL-60, in the assay with RPMI-8226, with SF-268 and in the assay on SK-MEL-2 was > 100 µM (inactive) each time. Also, the GI50 in the assay with MOLT-4, in the assay on SN12C, in the assay with SF-539 and in the assay with EKVX was > 100 µM (inactive) each time.
Regarding `C=C(CO)CC(/C=C(\C)CC/C=C(\C)CCl)OC(C)=O` (configuration not stated), the GI50 with HCT-15 is over 100 µM; in the assay with 786-0 it was > 100 µM (inactive); in the assay with UACC-62 it was > 100 µM (inactive); in the assay on M14, > 100 µM (inactive); with HCT-116 it was > 100 µM (inactive); in the assay with HOP-92, 5.7 µM (inactive). Besides, the GI50 with OVCAR-3, in the assay with LOX IMVI, with HL-60, in the assay with RPMI-8226, in the assay on SF-268 and in the assay on SK-MEL-2 was > 100 µM (inactive) throughout. For the same compound, the GI50 with MOLT-4, in the assay with SN12C, in the assay with SF-539 and with EKVX was > 100 µM (inactive) throughout.
Turning to `O=C(Cn1ccnc1[N+](=O)[O-])NCc1ccc(F)cc1`, the GI50 with HCT-15 is over 100 µM; with 786-0, > 100 µM (inactive); with UACC-62 it was > 100 µM (inactive); in the assay on M14 it was > 100 µM (inactive); in the assay on HOP-92, > 100 µM (inactive); with OVCAR-3 it was 33.5 µM (inactive). In addition, the GI50 in the assay on LOX IMVI, in the assay on HL-60, with RPMI-8226, with SF-268, in the assay with SK-MEL-2 and with MOLT-4 was > 100 µM (inactive) throughout. Moreover, the GI50 with SN12C, in the assay on SF-539 and in the assay on EKVX was > 100 µM (inactive) throughout.
